Data set [1] can be described thus: refractive index (Na D-line) (dimensionless). To be noted: 101.33 kPa, Liquid, Standard Abbe refractometry.
For data set [2] the following is noted: for mass density: 101.33 kPa.

This note sets out measurements from the NIST ThermoML archive (doi:10.1016/j.fluid.2006.12.010).

Molecules are shown by their SMILES. ± gives the expanded uncertainty stated by the source.

Consider `Cc1ccccc1O` [2-methylphenol], for which the refractive index in data set [1] (298.15 K) was determined as 1.5467 ± 0.0008. Besides, the mass density in data set [2] (298.15 K, Liquid) was found to be 1046 ± 1.8 kg/m3. The “vapor or sublimation pressure” value in data set [2] (463.55 K, Liquid) turned out to be 94.95 ± 5 kPa.

In the case of `Cc1cccc(O)c1` [3-methylphenol], the refractive index in data set [1] (298.15 K) amounted to 1.5395 ± 0.0008. In addition, in data set [2] (298.15 K, Liquid), the mass density was found to be 1030 ± 1.8 kg/m3. Also, the “vapor or sublimation pressure” value in data set [2] (473.55 K, Liquid) was 94.95 ± 5 kPa.

In the case of `Cc1ccc(O)cc1` [4-methylphenol], the refractive index in data set [1] (298.15 K) is recorded as 1.5391 ± 0.0008. Also, the mass density in data set [2] (298.15 K, Crystal) is 1154 ± 2.1 kg/m3. Further, the “vapor or sublimation pressure” value in data set [2] (475.35 K, Liquid) is 94.95 ± 5 kPa.

As to `Brc1ccccc1` [bromobenzene], the refractive index in data set [1] (293.15 K) worked out at 1.5571 ± 0.0008. Moreover, in data set [2] (293.15 K, Liquid), the mass density was determined as 1488.2 ± 2.8 kg/m3. Also, the “vapor or sublimation pressure” value in data set [2] (426.85 K, Liquid) was determined as 94.95 ± 5 kPa.

In the case of `CN(C)C=O` [dimethylformamide], the refractive index in data set [1] (293.15 K) came out at 1.4305 ± 0.0008. In addition, the mass density in data set [2] (293.15 K, Liquid) is recorded as 948.7 ± 1.6 kg/m3. The “vapor or sublimation pressure” value in data set [2] (424.15 K, Liquid) is given as 94.95 ± 5 kPa.

In the case of `O=[N+]([O-])c1ccccc1` [nitrobenzene], the refractive index in data set [1] (298.15 K) is 1.55 ± 0.0008. In addition, the mass density in data set [2] (298.15 K, Liquid) is 1198 ± 2.2 kg/m3. The “vapor or sublimation pressure” value in data set [2] (481.15 K, Liquid) stood at 94.95 ± 5 kPa.

By refractive index is commonly meant the speed of light in vacuum divided by its phase velocity in the sample. What is called mass density is mass per unit of volume. The term vapor or sublimation pressure denotes the equilibrium pressure above the liquid or solid.
